Test results from patent US20060003924A1, “Sulfation-independent L-selectin or E-selectin ligand (HCELL) and therapeutics thereof” (priority 1994, published 2006).
Entries after “also recorded” stand apart in the source; their conditions may differ. Where two headings read alike, the source gives them in different places.

Experiments:
KG1a [1] = assay: Lymphocyte adherence assay on KG1a cytocentrifuge preparations (Examples 2-6); format: cell-based, human; details: for return of binding activity following desialylation: KG1a after neuraminidase
KG1a cells = assay: Stamper-Woodruff lymphocyte adherence assay on KG1a cytospins (Example 9); format: cell-based, human; details: for L-selectin ligand Activity of KG1a Cells Following Protease or Phospholipase C Treatment, % Control Binding: enzymatic treatment of cells in suspension before cytocentrifugation
LN HEV = assay: Lymphocyte adherence to frozen rat lymph node sections (LN HEV, positive control); format: cell-based
Protocol: Lymphocyte Adherence Assay. […] Cytocentrifuge preparations of KG1a or other cell lines were made on a Cytospin 3 Cytocentrifuge (Shandon Lipshaw, Pittsburgh, Pa.). Frozen rat LN sections […] thick were mounted on slides, and lymphocyte binding to LN HEV served as a positive control in all experiments.
Lymphocyte suspensions ([…]) were overlaid onto cytocentrifuge or LN sections in duplicate and placed on a rotating platform (80 rpm) at 4° C. for 30 minutes. Slides were then rinsed in cold PBS to remove non-adherent lymphocytes, fixed in 3% glutaraldehyde, and stained with methyl green-thionin. Slides were examined under the light microscope for adherence of lymphocytes to KG1a or LN HEV.

CD43 = assay: Flow cytometry of sialic acid-dependent L60 epitope of CD43 on KG1a after neuraminidase; format: cell-based, human; details: KG1a cultured with the agent
E-selectin = target: T1, E-selectin (Homo sapiens, UniProt P16581); assay: E-selectin ligand activity of immunoprecipitated proteins (CHO-E cell rolling); format: cell-based; details: for E-selectin-mediated CHO-E cell rolling on immunoprecipitated protein spotted onto plastic dishes: 3.8 dynes/cm^2
T1 construct: expressed in transfected cells; host or cells: CHO cells (CHO-E)
T1 sequence (P16581 22-610): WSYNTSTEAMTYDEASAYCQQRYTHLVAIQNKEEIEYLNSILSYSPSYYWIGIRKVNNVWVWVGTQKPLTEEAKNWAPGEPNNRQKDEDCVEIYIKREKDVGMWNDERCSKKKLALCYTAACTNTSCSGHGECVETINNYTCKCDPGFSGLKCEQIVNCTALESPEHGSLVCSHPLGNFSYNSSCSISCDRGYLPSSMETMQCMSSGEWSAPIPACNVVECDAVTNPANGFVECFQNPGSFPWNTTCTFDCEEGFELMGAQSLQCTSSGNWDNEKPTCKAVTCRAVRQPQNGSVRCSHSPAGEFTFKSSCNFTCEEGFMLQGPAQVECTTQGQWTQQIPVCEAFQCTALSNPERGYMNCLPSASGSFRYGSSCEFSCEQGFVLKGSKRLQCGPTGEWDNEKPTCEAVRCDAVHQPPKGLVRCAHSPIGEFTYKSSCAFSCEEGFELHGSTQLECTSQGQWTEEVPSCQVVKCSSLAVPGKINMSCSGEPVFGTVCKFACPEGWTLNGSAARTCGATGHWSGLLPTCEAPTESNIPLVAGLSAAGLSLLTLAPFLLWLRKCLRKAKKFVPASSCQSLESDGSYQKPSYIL

KG1a [2] = assay: KG1a cell viability by trypan blue exclusion; format: cell-based, human; details: KG1a after the treatment
[3] = test system: E-selectin ligand activity on KG1a and HL-60 cells; assay: Parallel-plate flow chamber: CHO-E cell rolling on fixed hematopoietic cell monolayers; format: cell-based, human; details: 2.8 dynes/cm^2, 3.8 dynes/cm^2
KG1a CD44 = target: T2, KG1a CD44 (Homo sapiens, UniProt P16070); assay: CHO-E cell rolling over blotted or spotted KG1a membrane proteins / immunoprecipitated CD44; format: cell-based; details: 3.8 dynes/cm^2
T2 construct: was immunoprecipitated from KG1a membrane protein (50 μg); endogenous in cells; host or cells: KG1a cells (membrane preparation, Hermes-1 immunoprecipitate)
T2 sequence (P16070 21-361 isoform P16070-12 limits assumed): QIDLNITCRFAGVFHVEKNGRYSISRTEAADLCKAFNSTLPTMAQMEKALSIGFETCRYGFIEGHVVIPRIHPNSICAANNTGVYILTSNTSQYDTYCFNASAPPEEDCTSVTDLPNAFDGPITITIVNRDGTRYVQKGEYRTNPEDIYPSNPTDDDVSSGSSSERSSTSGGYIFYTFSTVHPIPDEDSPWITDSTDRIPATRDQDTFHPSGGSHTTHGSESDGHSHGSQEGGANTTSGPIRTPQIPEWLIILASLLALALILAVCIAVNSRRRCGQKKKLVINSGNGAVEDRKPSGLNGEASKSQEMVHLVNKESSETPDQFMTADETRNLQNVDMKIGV

[4] = 24 h culture with inhibitor after 1 h neuraminidase (0.1 U/ml), tunicamycin 15 μg/ml, deoxymannojirimycin 0.4 mg/ml, swainsonine 40 μg/ml
[5] = inhibitor alone, 24 h, tunicamycin 15 μg/ml, deoxymannojirimycin 0.4 mg/ml, swainsonine 40 μg/ml
[6] = 20 hr culture, no neuraminidase pretreatment, tunicamycin 15 ug/ml, cycloheximide 1.25 ug/ml
[7] = after neuraminidase, 24 hr culture with chlorate 10 mM, 20 hr culture with tunicamycin 15 ug/ml or cycloheximide 1.25 ug/ml
[8] = digestion then culture without inhibitor (neuraminidase 24 hour, bromelain 20 hour)
[9] = LYMPHOCYTE TREATMENT, 1 mM EDTA, 10 mM mannose-6-P, 10 mg/ml PPME, 5 mg/ml fucoidin, 10 ng/ml PMA

O=S(=O)(F)Cc1ccccc1 [PMSF]
lymphocyte binding to KG1a (result in words) (KG1a [1]): prevented chymotrypsin effects

Chymotrypsin
L-selectin ligand (HCELL) activity of KG1a / lymphocyte adherence (result in words) (KG1a cells; Stamper-Woodruff assay): completely abrogates | L-selectin ligand Activity of KG1a Cells Following Protease or Phospholipase C Treatment, % Control Binding (KG1a cells): 6.7 % Control Binding | lymphocyte binding to KG1a (result in words) (KG1a [1]): abrogated binding | Lymphocyte Adherence to KG1a, Mean of Binding (% of untreated control) (KG1a [1]; KG1A TREATMENT): 6.7 % of Untreated Control | lymphocyte binding to LN control sections / LN HEV (result in words) (LN HEV): abrogated binding

Tunicamycin
% Control Adhesion (KG1a cells; [4]): 1.0 % Control Adhesion | L-selectin ligand (HCELL) activity of KG1a / lymphocyte adherence (result in words) (KG1a cells; Stamper-Woodruff assay): completely prevented ligand re-expression | % Control Adhesion (KG1a cells; [5]): 96.5 % Control Adhesion | Lymphocyte Adherence to KG1a, Mean of Binding (% of untreated control) (KG1a [1]; [6]): 106.2 % of untreated control | return of binding activity following desialylation (KG1a [1]): blocked | Lymphocyte Adherence to KG1a, Mean of Binding (% of untreated control) (KG1a [1]; [7]): 0.4 % of untreated control | return of the L60 epitope of CD43 after neuraminidase (CD43): not inhibited

O[C@H]1[C@H]2[C@H](O)CCCN2C[C@H]1O [Swainsonine]
% Control Adhesion (KG1a cells; [4]): 26.6 % Control Adhesion | L-selectin ligand (HCELL) activity of KG1a / lymphocyte adherence (result in words) (KG1a cells; Stamper-Woodruff assay): markedly diminished | % Control Adhesion (KG1a cells; [5]): 95.5 % Control Adhesion | return of the L60 epitope of CD43 after neuraminidase (CD43): not inhibited

OC[C@H]1NC[C@@H](O)[C@@H](O)[C@@H]1O [Deoxymannojirimycin]
% Control Adhesion (KG1a cells; [4]): 22.5 % Control Adhesion | L-selectin ligand (HCELL) activity of KG1a / lymphocyte adherence (result in words) (KG1a cells; Stamper-Woodruff assay): markedly diminished | % Control Adhesion (KG1a cells; [5]): 107.5 % Control Adhesion | return of the L60 epitope of CD43 after neuraminidase (CD43): not inhibited

KG1a CD44: HECA-452-reactive CD44 glycoform of KG1a, hematopoietic cell E-selectin/L-selectin ligand
E-selectin-mediated CHO-E cell rolling on immunoprecipitated protein spotted onto plastic dishes (E-selectin): rolling was observed

BMEC CD44: CD44 immunoprecipitated from human bone marrow endothelial cells
E-selectin ligand activity of immunoprecipitated CD44 (E-selectin; human bone marrow endothelial cells, Hermes-1 immunoprecipitate): did not possess any E-selectin ligand activity

Neuraminidase: neuraminidase (sialidase), V. cholerae, Boehringer Mannheim
Cell viability (trypan blue exclusion) (KG1a [2]): > 99% | % Control Adhesion (KG1a cells; Neuraminidase 1 h then 24 h recovery): 99.3 % Control Adhesion | % Control Adhesion (KG1a cells; Neuraminidase (1 h), 0.1 U/ml): 1.0 % Control Adhesion | Mean % Control Binding (KG1a cells; [8]): 101.3 % Control Binding | Mean % Control Binding (KG1a cells; t = 0, no culture): 0.2 % Control Binding | lymphocyte binding to KG1a (result in words) (KG1a [1]): abrogated binding | Lymphocyte Adherence to KG1a, Mean of Binding (% of untreated control) (KG1a [1]; KG1A TREATMENT): 3.1 % of Untreated Control | Lymphocyte Adherence to KG1a, Mean of Binding (% of untreated control) (KG1a [1]; KG1a treatment, t = 0, no culture): 0.02 % of untreated control | Lymphocyte Adherence to KG1a, Mean of Binding (% of untreated control) (KG1a [1]; neuraminidase then 24 hr culture): 101.3 % of untreated control | E-selectin ligand activity (CHO-E cell rolling) on KG1a and HL-60 cells [3]: no activity | lymphocyte binding to LN control sections / LN HEV (result in words) (LN HEV): abrogated binding | E-selectin ligand activity (CHO-E cell rolling) of KG1a membrane proteins / CD44 after treatment (KG1a CD44): markedly ablated CHO-E cell rolling

C[C@@H]1C[C@@H]([C@H](O)CC2CC(=O)NC(=O)C2)C(=O)[C@@H](C)C1 [Cycloheximide]
Mean % Control Binding (KG1a cells; 20 hour culture with cycloheximide 1.25 μg/ml, no neuraminidase or bromelain digestion): 91.8 % Control Binding | Mean % Control Binding (KG1a cells; after bromelain, 20 hour culture with cycloheximide 1.25 μg/ml): 0.6 % Control Binding | Mean % Control Binding (KG1a cells; after neuraminidase, 20 hour culture with cycloheximide 1.25 μg/ml): 0.5 % Control Binding | Lymphocyte Adherence to KG1a, Mean of Binding (% of untreated control) (KG1a [1]; [6]): 91.8 % of untreated control | return of binding activity following desialylation (KG1a [1]): blocked | Lymphocyte Adherence to KG1a, Mean of Binding (% of untreated control) (KG1a [1]; [7]): 0.5 % of untreated control

O=C[C@@H](O)[C@@H](O)[C@H](O)[C@H](O)COP(=O)(O)O [Mannose-6-P, D-mannose-6-phosphate]
lymphocyte binding to KG1a (result in words) (KG1a [1]): inhibited | Lymphocyte Adherence to KG1a, Mean of Binding (% of untreated control) (KG1a [1]; [9]): 5.7 % of Untreated Control | lymphocyte binding to LN control sections / LN HEV (result in words) (LN HEV): inhibited

O=C(O)CN(CCN(CC(=O)O)CC(=O)O)CC(=O)O [EDTA]
L-selectin ligand (HCELL) activity of KG1a / lymphocyte adherence (result in words) (KG1a cells): complete elimination | lymphocyte binding to KG1a (result in words) (KG1a [1]): completely inhibited | Lymphocyte Adherence to KG1a, Mean of Binding (% of untreated control) (KG1a [1]; [9]): 0.3 % of Untreated Control | E-selectin ligand activity (CHO-E cell rolling) on KG1a and HL-60 cells [3]: completely inhibited; also recorded: no activity | lymphocyte binding to LN control sections / LN HEV (result in words) (LN HEV): completely inhibited | E-selectin ligand activity (CHO-E cell rolling) of KG1a membrane proteins / CD44 after treatment (KG1a CD44): no evidence of E-selectin-mediated adhesive interactions; also recorded: prevented CHO-E rolling

CC(C)C[C@H](NC(=O)[C@@H](NC(=O)N[C@@H](Cc1ccccc1)C(=O)O)[C@@H]1CCN=C(N)N1)C(=O)N[C@H](C=O)Cc1ccccc1 [chymostatin]
lymphocyte binding to KG1a (result in words) (KG1a [1]): prevented chymotrypsin effects

Fucoidin
lymphocyte binding to KG1a (result in words) (KG1a [1]): inhibited | Lymphocyte Adherence to KG1a, Mean of Binding (% of untreated control) (KG1a [1]; [9]): 1.4 % of Untreated Control | lymphocyte binding to LN control sections / LN HEV (result in words) (LN HEV): inhibited

Human Neutrophil Elastase: protease
L-selectin ligand (HCELL) activity of KG1a / lymphocyte adherence (result in words) (KG1a cells; Stamper-Woodruff assay): partially affects activity | L-selectin ligand Activity of KG1a Cells Following Protease or Phospholipase C Treatment, % Control Binding (KG1a cells): 25.4 % Control Binding

Bromelain
L-selectin ligand (HCELL) activity of KG1a / lymphocyte adherence (result in words) (KG1a cells; Stamper-Woodruff assay): completely abrogates | Mean % Control Binding (KG1a cells; [8]): 95.2 % Control Binding | L-selectin ligand Activity of KG1a Cells Following Protease or Phospholipase C Treatment, % Control Binding (KG1a cells): 3.8 % Control Binding | Mean % Control Binding (KG1a cells; t = 0, no culture): 3.8 % Control Binding | lymphocyte binding to KG1a (result in words) (KG1a [1]): abrogated binding | Lymphocyte Adherence to KG1a, Mean of Binding (% of untreated control) (KG1a [1]; KG1A TREATMENT): 3.8 % of Untreated Control | lymphocyte binding to LN control sections / LN HEV (result in words) (LN HEV): abrogated binding

B1: KG1a PSGL-1: P-selectin glycoprotein ligand-1 immunoprecipitated (4H10 moAb) from KG1a (protein, UniProt Q14242 42-412, looked up)
P-selectin glycoprotein …: QATEYEYLDYDFLPETEPPEMLRNSTDTTPLTGPGTPESTTVEPAARRSTGLDAGGAVTELTTELANMGNLSTDSAAMEIQTTQPAATEAQTTQPVPTEAQTTPLAATEAQTTRLTATEAQTTPLAATEAQTTPPAATEAQTTQPTGLEAQTTAPAAMEAQTTAPAAMEAQTTPPAAMEAQTTQTTAMEAQTTAPEATEAQTTQPTATEAQTTPLAAMEALSTEPSATEALSMEPTTKRGLFIPFSVSSVTHKGIPMAASNLSVNYPVGAPDHISVKQCLLAILILALVATIFFVCTVVLAVRLSRKGHMYPVRNYSPTEMVCISSLLPDGGEGPSATANGGLSKAKSPGLTPEPREDREGDDLTLHSFLP
modifications: KG1a cell glycoform
notes: P-selectin glycoprotein ligand-1 immunoprecipitated (4H10 moAb) from KG1a
E-selectin-mediated CHO-E cell rolling on immunoprecipitated protein spotted onto plastic dishes (E-selectin): no binding was observed | CHO-E rolling on immunoprecipitated protein (E-selectin; lower shear force of 0.6 dynes/cm^2): did occur
